According to patent publication US20060110376A1, “MDA-7 and free radicals in the treatment of cancer” (priority 2002, published 2006):

Experiments:
[1] = test system: RCC cell lines A498 and UOK121N; assay: MTT cell growth assay; assay type: cell-based, human; conditions: As2O3 0.5 μM; 96 h
Protocol: (§1) FIG. 25A-D. GST-MDA-7 causes a dose-dependent reduction in the proliferation of renal carcinoma cells but not primary renal epithelial cells. Cells were plated in 12 well plates (˜1×10^4 cells/well) and 24 h later treated with increasing concentrations of GST and GST-MDA-7 as indicated. Cell growth was determined via MTT assay 96 h after GST-MDA-7 treatment. Data are the means of 12 wells (one plate per condition, ±SEM) from a representative experiment using different preparations of GST-MDA-7 (n=3). Panel A. UOK121N cells. Panel B. A498 cells. Panel C. Primary renal epithelial cells. Panel D. Primary rat hepatocytes were isolated and cultured as described in Methods. Four hours after plating, hepatocytes were infected with either control CMV virus or Ad.mda-7 (at a multiplicity of infection of 50). […] Cell growth was determined via MTT assay 96 h after MDA-7 treatment. […]
(§2) FIG. 27A-C. […] Cell growth was determined via MTT assay 96 h after GST-MDA-7 treatment. […]
(§3) MTT Assay for Determination of Cellular Viability. […] The cytotoxicity of the various treatments was assessed four days after irradiation by measurement of cell viability by use of the MTT assay, as described previously (McKinstry et al., 2002, Cancer Biol. Ther. 1:243-253). The plates were read on a Dynatech MR600 Microplate Reader at 540 nm. […]

[2] = test system: primary renal epithelial cells; assay: MTT cell growth assay; assay type: cell-based, human; conditions: low concentrations, each agent alone
Protocol: as §1, §2, §3

[3] = test system: A498, UOK121N and primary renal epithelial cells; assay: MTT cell growth assay, arsenic trioxide alone; assay type: cell-based, human
Protocol: FIG. 26. Arsenic trioxide causes a concentration-dependent reduction in primary and renal carcinoma cell growth. Cells were plated in 12 well plates (˜1×10^4 cells/well) and 24 h later treated with increasing concentrations of As2O3 as indicated. Cell growth was determined via MTT assay 96 h after GST-MDA-7 treatment. Data are the means of 12 wells (one plate per condition, ±SEM) from a representative experiment using separate As2O3 formulations (n=3). Arsenic trioxide caused a dose-dependent enhancement in cell killing at higher concentrations >10 μM.
MTT Assay for Determination of Cellular Viability. The MTT test is based on the enzymatic reduction of the tetrazolium salt MTT in living, metabolically active cells but not in dead cells. Cells were plated (5-10,000 cells per well of a 12 well plate) and 24 h after plating treated with either GST or GST-MDA-7 at the indicated concentrations. Thirty minutes after protein treatment, cells were treated with arsenic trioxide at the indicated concentrations. The cytotoxicity of the various treatments was assessed four days after irradiation by measurement of cell viability by use of the MTT assay, as described previously (McKinstry et al., 2002, Cancer Biol. Ther. 1:243-253). The plates were read on a Dynatech MR600 Microplate Reader at 540 nm. […]

[4] = test system: normal cells (immortalized human astrocytes or melanocytes); assay: MTT viability assay; assay type: cell-based; conditions: Ad.mda-7 100 p.f.u./cell
Protocol: MTT Viability Assays. Cell viability was assessed by MTT assays as described (Lebedeva et al., 2000, Cancer Research 60:6052-6060). Briefly, cells were seeded in 96-well tissue culture plates (1.5×10^3 cells per well) and treated with various agents. At the indicated times, medium was removed, and fresh medium containing 0.5 mg/ml MTT was added to each well. The cells were incubated at 37° C. for 4 h and then an equal volume of solubilization solution (0.01N HCl in 10% SDS) was added to each well and mixed thoroughly. The optical density from the plates was read on a BioRad Microplate Reader Model 550 at 595 nm.

[5] = test system: RCC cell lines A498 and UOK121N; assay: Cell death (Giemsa staining, trypan blue); assay type: cell-based, human; conditions: 10 mM N-acetyl cysteine 1 h before As2O3
Protocol: Cells were plated in 6 well plates (˜5×10^4 cells/well) and 24 h later treated with GST, GST-MDA-7 (both 0.5 nM) and As2O3 (0.5 μM) as indicated. Where indicated, cells were pre-treated with 10 mM N-acetyl cysteine 1 h prior to addition of As2O3. Cells were isolated 96 h after GST-MDA-7 treatment. Cell death was determined on isolated fixed cells by Giemsa staining for apoptosis and necrosis (presented as a single value) as described (30). Panel A. UOK121N cells. Panel B. A498 cells. […]
Assessment of Apoptosis and Cell Death. […] For each condition, 10 randomly selected fields per slide were evaluated, encompassing at least 15000 cells (Dai et al., 2002, Cell Cycle 1:143-152; Qiao et al., 2001, Mol. Biol. Cell 12:2629-2645). To confirm the results of morphologic analysis, in some cases cells were also evaluated by TUNEL staining and oligonucleosomal DNA fragmentation assay as follows; staining, cytospin slides were fixed with 4% formaldehyde/PBS for 10 min, treated with acetic acid/ethanol (1:2) for 5 min, and incubated with terminal transferase reaction mixture containing 1× terminal transferase reaction buffer, […] terminal transferase, 2.5 mM CoCl2, and 2 pmol fluorescein-12-dUTP (Boehringer Mannheim, Indianapolis, Ind.) at 37° C. for 1 h. […]
Assessment of Cell Viability. […] Cells (˜400) were counted in all four fields of a hemocytometer.

## arsenic trioxide
[1]
  effect of arsenic trioxide on growth suppression by GST-MDA-7: enhanced the growth suppressive effects of GST-MDA-7
[2]
  growth potential: Neither low concentrations of arsenic trioxide nor GST-MDA-7 alone altered the growth potential
[3]
  concentrations giving dose-dependent enhancement in cell killing: > 10 µM
[3]; 96 h
  concentration above which proliferation was dose-dependently reduced: above 1 μM
[4]
  growth, combinational treatment with Ad.mda-7: does not affect growth of normal cells

## CC(=O)N[C@@H](CS)C(=O)O [NAC, N-acetyl-cysteine]
[5]
  effect of N-acetyl-cysteine on cell killing by GST-MDA-7 + arsenic trioxide: significantly reduced cell killing
